Source: patent US4613614A, “Prostaglandin I2 ester and fat emulsion containing the same” (The Green Cross Corporation, priority 1983, dated 1986)
In brackets after ≈: the same amount, converted by molar mass. Structures can show the parent of a compound that is named as a salt.

Experiments:
[1] = tested on: platelet agglutination (PRP, plasma rich in platelet); experiment: Change of agglutination-inhibition rate with incubation time, fat emulsions (evaluated indirectly via c-AMP content in the platelets); assay type: cell-based, Wistar-strain male rats; set-up: concentration or dose not given beside the values; details: incubation 1 minute; compounds in fat emulsion, sodium salt of prostaglandin I2 in aq. solution
[2] = tested on: platelet agglutination (PRP, plasma rich in platelet); experiment: as above; assay type: cell-based, Wistar-strain male rats; set-up: concentration or dose not given beside the values; details: compounds in fat emulsion, sodium salt of prostaglandin I2 in aq. solution; for agglutination-inhibition rate, incubation time 5 minutes: incubation 5 minutes; for agglutination-inhibition rate, incubation time 20 minutes: incubation 20 minutes; for agglutination-inhibition rate, incubation time 60 minutes: incubation 60 minutes
Source text: (§1) Wistar-strain male rats weighing 150 to 200 g were used in the experiment.
(§2) Blood samples were collected from the heart of the animal without anasthesia by the use of a syringe, in which 3.3% sodium citrate solution had been placed beforehand, in such a way that the volume ratio of the sodium citrate solution to the collected blood was 1:9. The collected blood was then quickly centrifuged at 170 G at room temperature to obtain plasma rich in platelet (hereinafter referred to as PRP).
Separately, by using fat emulsions prepared as in Example 3 and extending the incubation time to 5, 20 and 60 minutes, the changes in agglutination-inhibition rate were observed. Each fat emulsion was prepared to contain 1 mg in terms of prostaglandin I2 of a test compound. It was incubated with PRP for a predetermined time; the platelets were then washed; and the content of c-AMP in the platelets was determined, thus to evaluate indirectly the inhibitory action on platelet agglutination. A physiological saline solution of sodium salt of prostaglandin I2 was used as the control.

[3] = tested on: platelet agglutination (PRP, plasma rich in platelet); experiment: Platelet-agglutination inhibition test (rat PRP, adenosine phosphate, aggregometer); assay type: cell-based, Wistar-strain male rats; details: 1 min, concentration in terms of prostaglandin I2 reducing maximum agglutination rate by 50% relative to control, 1 min at 37° C., 1 mM adenosine phosphate, read-out: ED50 (the source's name)
Source text: as §1, §2
Then, the compounds 1, 2 and 3 as well as sodium salt of prostaglandin I2 were respectively dissolved in ethanol to a concentration of 1 mg/ml in terms of prostaglandin I2, and thereafter diluted with physiological saline to form solutions of various concentrations.
The platelet-agglutination inhibition test was carried out in the following manner.
The above-mentioned PRP (500 μl) and the above solution 50 μl) containing the drug tested were incubated at 37° C. for one minute in an aggregometer cuvette; then 1 mM adenosine phosphate solution (50 μl) was added to the mixture to obtain an agglutination curve on the instrument and determine the maximum agglutination rate. A mixture of 500 μl of PRP, 50 μl of physiological saline and 50 μl of 1 mM adenosine phosphate solution was used as the control to obtain similarly an agglutination curve.
The concentration (ED50) in terms of prostaglandin I2 of each of the drugs to be tested, at which the solution containing the drug reduces the percentage of the maximum agglutination rate by 50% relative to that of the control taken as 100, was calculated.

[4] = tested on: artery; details: cited from earlier work
[5] = tested on: other smooth muscles; details: cited from earlier work
[6] = tested on: human platelet agglutination; details: cited from earlier work
[7] = cited from earlier work
[8] = tested on: platelet agglutination; details: cited from earlier work

## CCCCCC(O)C=CC1C(O)CC2OC(=CCCCC(=O)OCC(=O)OCCCC)CC21 (centres unmarked) [Compound 1, butoxycarbonylmethyl prostaglandin I2 ester]
[1]
  agglutination-inhibition rate, incubation time 1 minute: 13%
[2]
  agglutination-inhibition rate, incubation time 5 minutes: 11%
  agglutination-inhibition rate, incubation time 20 minutes: 7%
  agglutination-inhibition rate, incubation time 60 minutes: 3%
[3]
  IC50: 4.6 µg/mL (≈ 9.86 µM)

## CCCCCC(O)C=CC1C(O)CC2OC(=CCCCC(=O)OCOC(=O)C(C)(C)C)CC21 (centres unmarked) [Compound 2, Pivaloyloxymethyl prostaglandin I2 ester]
[1]
  agglutination-inhibition rate, incubation time 1 minute: 93%
[2]
  agglutination-inhibition rate, incubation time 5 minutes: 78%
  agglutination-inhibition rate, incubation time 20 minutes: 51%
  agglutination-inhibition rate, incubation time 60 minutes: 27%
[3]
  IC50: 0.5 µg/mL (≈ 1.07 µM)

## CCCCCC(=O)OC(C)OC(=O)CCCC=C1CC2C(CC(O)C2C=CC(O)CCCCC)O1 (centres unmarked) [Compound 3, 1-Hexanoyloxyethyl prostaglandin I2 ester]
[1]
  agglutination-inhibition rate, incubation time 1 minute: 78%
[2]
  agglutination-inhibition rate, incubation time 5 minutes: 71%
  agglutination-inhibition rate, incubation time 20 minutes: 65%
  agglutination-inhibition rate, incubation time 60 minutes: 48%
[3]
  IC50: 0.7 µg/mL (≈ 1.42 µM)

## CCCCC[C@H](O)/C=C/[C@@H]1[C@H]2C/C(=C/CCCC(=O)O)O[C@H]2C[C@H]1O [Sodium salt of prostaglandin I2, reference compound]
[1]
  agglutination-inhibition rate, incubation time 1 minute: 100%
[2]
  agglutination-inhibition rate, incubation time 5 minutes: 17%
  agglutination-inhibition rate, incubation time 20 minutes: 0%
  agglutination-inhibition rate, incubation time 60 minutes: 0%
[3]
  IC50: 0.4 µg/mL

## CCCCC[C@H](O)/C=C/[C@@H]1[C@H]2C/C(=C/CCCC(=O)O)O[C@H]2C[C@H]1O [prostaglandin I2, (5Z,13E)-(9α, 11α, 15S)-6,9-epoxy-11,15-dihydroxyprosta-5,13-dienoic acid]
[4]
  artery-relaxative or artery-contractive action: powerful artery-relaxative action
[5]
  relaxation of other smooth muscles: does not relax other smooth muscles
[6]
  suppression of human platelet agglutination action induced by arachidonic acid: strongly suppresses
[7]
  water solubility: fairly water-soluble

## CCCCCC(O)C=CC1OC2CC(O2)C1CC=CCCCC(=O)O (centres unmarked) [thromboxan A2]
[4]
  artery-relaxative or artery-contractive action: artery-contractive action
[8]
  platelet-agglutination action: platelet-agglutination action
